# Measured values published in ChEMBL document CHEMBL1138862 (J Med Chem, 2006).
# What was measured:
# Format in all cases: functional
# Escherichia coli [1] = assay: Antibacterial activity against Escherichia coli pTMV19 in presence of mevalonate
# Escherichia coli [2] = assay: Antibacterial activity against Escherichia coli pTMV19
# Escherichia coli [3] = assay: Antibacterial activity against Escherichia coli W3110
SMILES,inhibition zone (IZ) (Escherichia coli [1]),inhibition zone (IZ) (Escherichia coli [2]),inhibition zone (IZ) (Escherichia coli [3])
O=P(O)(O)C(Nc1ccc(I)cn1)P(=O)(O)O,7 mm,7 mm,7 mm
O=P(O)(O)C(O)(Cc1cccc(Cl)c1)P(=O)(O)O,0 mm,11 mm,8 mm
O=P(O)(O)CC(c1cccnc1)P(=O)(O)O (stereo unspecified),,,0 mm
CCCCCCCCCCCCCCCCCC(O)(P(=O)(O)O)P(=O)(O)O,,,0 mm
O=P(O)(O)C(Nc1cccc(Cc2ccccc2)c1)P(=O)(O)O,0 mm,8 mm,7 mm
CCCCCCc1ccc(NC(P(=O)(O)O)P(=O)(O)O)cc1,0 mm,0 mm,0 mm
O=P(O)(O)C(Nc1cccnc1Cl)P(=O)(O)O,,,0 mm
O=P(O)(O)C(N1CCCCC1)P(=O)(O)O,,,0 mm
Cc1cc(Br)cnc1NC(P(=O)(O)O)P(=O)(O)O,0 mm,0 mm,0 mm
CC(C)(C)c1cccc(NC(P(=O)(O)O)P(=O)(O)O)c1,0 mm,7 mm,7 mm
O=P(O)(O)C(NC1CCCCCCC1)P(=O)(O)O [(CYCLOOCTYLAMINO)METHYLENEDIPHOSPHONIC ACID],0 mm,8 mm,7 mm
CCC1CCCCN1C(P(=O)(O)O)P(=O)(O)O (stereo unspecified),,,0 mm
Nc1ccc(CC(O)(P(=O)(O)O)P(=O)(O)O)cc1,,,0 mm
CC(C)c1cccc(NC(P(=O)(O)O)P(=O)(O)O)c1,0 mm,9 mm,8 mm
O=P(O)(O)C(Nc1c(F)c(F)c(F)c(F)c1F)P(=O)(O)O,,,0 mm
O=P(O)(O)C(O)(Cc1ccccn1)P(=O)(O)O,,,0 mm
CCCN(CCC)C(P(=O)(O)O)P(=O)(O)O [(DIPROPYLAMINO)METHYLENEDIPHOSPHONIC ACID],,,0 mm
O=P(O)(O)C(Nc1cc2ccccc2cn1)P(=O)(O)O,,,0 mm
O=P(O)(O)C(O)(C1CCC1)P(=O)(O)O [CYCLOBUTYL(HYDROXY)METHYLENEDIPHOSPHONIC ACID],,,0 mm
O=P(O)(O)C(O)(Cc1cccc(Br)c1)P(=O)(O)O,0 mm,14 mm,12 mm
O=C(N[C@H](CO)[C@H](O)c1ccc([N+](=O)[O-])cc1)C(Cl)Cl [CHLORAMPHENICOL],19 mm,20 mm,24 mm
O=P(O)(O)C(O)(Cc1cn2ccccc2n1)P(=O)(O)O,,,0 mm

SMILES,inhibition zone (IZ) (Escherichia coli [1]),inhibition zone (IZ) (Escherichia coli [2]),inhibition zone (IZ) (Escherichia coli [3])
Cc1cccc(NC(P(=O)(O)O)P(=O)(O)O)n1,8 mm,10 mm,7 mm
O=P(O)(O)C(CNc1ccccn1)P(=O)(O)O,,,0 mm
NC[C@H]1O[C@H](O[C@H]2[C@H](O)[C@@H](O[C@H]3O[C@H](CO)[C@@H](O)[C@H](N)[C@H]3O)[C@H](N)C[C@@H]2N)[C@H](O)[C@@H](O)[C@@H]1O [KANAMYCIN],17 mm,22 mm,21 mm
CN(C)[C@@H]1C(O)=C(C(N)=O)C(=O)[C@@]2(O)C(O)=C3C(=O)c4c(O)cccc4[C@@](C)(O)[C@H]3C[C@@H]12 [TETRACYCLINE],22 mm,21 mm,21 mm
O=P(O)(O)C(Nc1ccccn1)P(=O)(O)O,12 mm,8 mm,7 mm
O=P(O)(O)C(N1CCCCCC1)P(=O)(O)O [N-(HEXAMETHYLENEIMINO)METHYLENEBISPHOSPHONIC ACID],0 mm,0 mm,0 mm
CCC(C)NC(P(=O)(O)O)P(=O)(O)O (stereo unspecified),,,0 mm
CCCCc1ccc(NC(P(=O)(O)O)P(=O)(O)O)cc1,,,0 mm
CCCCCCC(CCCC)C(O)(P(=O)(O)O)P(=O)(O)O (stereo unspecified),0 mm,0 mm,0 mm
CCCCCCCCCNC(P(=O)(O)O)P(=O)(O)O [(NONYLAMINO)METHYLENEDIPHOSPHONIC ACID],,,0 mm
CCCCC(O)(P(=O)(O)O)P(=O)(O)O,,,0 mm
CC(N)CC(O)(P(=O)(O)O)P(=O)(O)O (stereo unspecified),,,0 mm
CCCCOc1ccc(NC(P(=O)(O)O)P(=O)(O)O)cc1,,,0 mm
O=P(O)(O)C(CNc1cccnc1)P(=O)(O)O,,,0 mm
NCCCCC(O)(P(=O)(O)O)P(=O)(O)O,,,0 mm
CC1CCN(C(P(=O)(O)O)P(=O)(O)O)CC1,,,0 mm
CN[C@@H]1[C@H](O[C@H]2[C@H](O[C@H]3[C@H](O)[C@@H](O)[C@H](N=C(N)N)[C@@H](O)[C@@H]3N=C(N)N)O[C@@H](C)[C@]2(O)C=O)O[C@@H](CO)[C@H](O)[C@H]1O [STREPTOMYCIN],7 mm,16 mm,15 mm
O=P(O)(O)C(O)(Cc1cccnc1)P(=O)(O)O [RISEDRONIC ACID],,,0 mm
O=P(O)(O)C(Nc1ccc2c(c1)CCC2)P(=O)(O)O,,,0 mm
CC1CCCCN1C(P(=O)(O)O)P(=O)(O)O (stereo unspecified),,,0 mm
O.O=P(O)(O)C(O)(Cn1ccnc1)P(=O)(O)O [ZOLEDRONIC ACID],,,0 mm
O=P(O)(O)C(NC1CCC1)P(=O)(O)O [(CYCLOBUTYLAMINO)METHYLENEDIPHOSPHONIC ACID],,,0 mm

SMILES,inhibition zone (IZ) (Escherichia coli [1]),inhibition zone (IZ) (Escherichia coli [2]),inhibition zone (IZ) (Escherichia coli [3])
CCc1cccc(NC(P(=O)(O)O)P(=O)(O)O)n1,,,0 mm
O=P(O)(O)C(O)(Cc1ccccc1)P(=O)(O)O,,,0 mm
CCCCCCCCNC(P(=O)(O)O)P(=O)(O)O [(OCTYLAMINO)METHYLENEDIPHOSPHONIC ACID],,,0 mm
"O=P(O)(O)C(Nc1ccc(Cl)cc1Cl)P(=O)(O)O [2,4-DICHLOROPHENYLAMINOMETHYLENEBISPHOSPHONIC ACID]",,,0 mm
CC(C)(C)c1cc(NC(P(=O)(O)O)P(=O)(O)O)cc(C(C)(C)C)c1,,,0 mm
O=P(O)(O)C(Nc1ncccc1COc1ccccc1)P(=O)(O)O,,,0 mm
CC1CC(C)CN(C(P(=O)(O)O)P(=O)(O)O)C1 (stereo unspecified),,,0 mm
CC1CCCN(C(P(=O)(O)O)P(=O)(O)O)C1 (stereo unspecified),,,0 mm
CCCCCCCCCCCC(O)(P(=O)(O)O)P(=O)(O)O,,,0 mm
O=P(O)(O)C(NC1CCCCCC1)P(=O)(O)O [INCADRONIC ACID],,,0 mm
CC(C)c1cccc(C(C)C)c1NC(P(=O)(O)O)P(=O)(O)O,,,0 mm
O=P(O)(O)CC(c1ccncc1)P(=O)(O)O (stereo unspecified),,,0 mm
NCCCCCC(O)(P(=O)(O)O)P(=O)(O)O [NERIDRONIC ACID],,,0 mm
CCCC(O)(P(=O)(O)O)P(=O)(O)O,,,0 mm
CN(Cc1ccccc1)C(P(=O)(O)O)P(=O)(O)O,,,0 mm
CCc1ccc(NC(P(=O)(O)O)P(=O)(O)O)cc1,,,0 mm
O=P(O)(O)C(O)(CCc1cccnc1)P(=O)(O)O,,,0 mm
Cc1nc(NC(P(=O)(O)O)P(=O)(O)O)c(Br)cc1Br,,,0 mm
O=P(O)(O)C(O)(CSc1ccncc1)P(=O)(O)O,,,0 mm
Cc1cccnc1NCC(P(=O)(O)O)S(=O)(=O)O (stereo unspecified),,,0 mm
CCCCNC(P(=O)(O)O)P(=O)(O)O [(BUTYLAMINO)METHYLENEDIPHOSPHONIC ACID],,,0 mm
CC1CCCC(C)N1C(P(=O)(O)O)P(=O)(O)O (stereo unspecified),,,0 mm

SMILES,inhibition zone (IZ) (Escherichia coli [1]),inhibition zone (IZ) (Escherichia coli [2]),inhibition zone (IZ) (Escherichia coli [3])
O=P(O)(O)C(Nc1ccc(Cl)nc1)P(=O)(O)O,,,0 mm
CCCCCN(C)CCC(O)(P(=O)(O)O)P(=O)(O)O [IBANDRONIC ACID],,,0 mm
CCCCCCCCCCCCCCCC(O)(P(=O)(O)O)P(=O)(O)O,,,0 mm
O=P(O)(O)C(Nc1cccc(Oc2ccccc2)c1)P(=O)(O)O,,,0 mm
O=P(O)(O)C(O)(Cc1ccncc1)P(=O)(O)O,,,0 mm
CCc1cccc(NC(P(=O)(O)O)P(=O)(O)O)c1,,,0 mm
O=P(O)(O)C(N1CCSCC1)P(=O)(O)O [THIOMORPHOLINOMETHYLENEDIPHOSPHONIC ACID],,,0 mm
O=P(O)(O)C(O)(C1CC1)P(=O)(O)O [CYCLOPROPYL(HYDROXY)METHYLENEDIPHOSPHONIC ACID],,,0 mm
O=P(O)(O)C(N1CCCCCCC1)P(=O)(O)O [N-(HEPTAMETHYLENEIMINO)METHYLENEBISPHOSPHONIC ACID],,,0 mm
NCCC(O)(P(=O)(O)O)P(=O)(O)O [PAMIDRONIC ACID],,,0 mm
CCCCCCC(O)(P(=O)(O)O)P(=O)(O)O,,,0 mm
CCC(C)CNC(P(=O)(O)O)P(=O)(O)O (stereo unspecified),,,0 mm
O=P(O)(O)C(=Nc1cccnc1)P(=O)(O)O,,,0 mm
CCCCCCCCCCCCCC(O)(P(=O)(O)O)P(=O)(O)O,,,0 mm
O=P(O)(O)C(O)(Cc1cccc(F)c1)P(=O)(O)O,,,0 mm
O=P(O)(O)C(Nc1ncc(Br)cc1Br)P(=O)(O)O,,,0 mm
O=P(O)(O)Cc1cccc(CP(=O)(O)O)c1,,,0 mm
CC(C)CCNC(P(=O)(O)O)P(=O)(O)O [(ISOPENTYLAMINO)METHYLENEDIPHOSPHONIC ACID],,,0 mm
CCCNC(P(=O)(O)O)P(=O)(O)O [(PROPYLAMINO)METHYLENEDIPHOSPHONIC ACID],,,0 mm
O=P(O)(O)C(Nc1cccnc1)P(=O)(O)O,,,0 mm
O=P(O)(O)C(NC1CCCC1)P(=O)(O)O [(CYCLOPENTYLAMINO)METHYLENEDIPHOSPHONIC ACID],,,0 mm
